Experimental data as given in the NIST ThermoML archive (doi:10.1007/s10765-019-2573-6).
Numbers after ± are expanded uncertainties.

Details: Liquid, Vibrating wire viscometry

COC(=O)CCCCC(=O)OC [dimethyl 1,6-hexanedioate]
viscosity [mPa·s]
Details	100 kPa	1000 kPa	5000 kPa	10000 kPa	15000 kPa	20000 kPa	30000 kPa	40000 kPa
293.15 K	–	–	3.46 ± 0.073	3.623 ± 0.077	3.787 ± 0.08	3.958 ± 0.084	4.333 ± 0.091	4.722 ± 0.1
293.17 K	3.302 ± 0.07	3.331 ± 0.071	–	–	–	–	–	–
303.15 K	–	–	2.735 ± 0.058	2.854 ± 0.06	–	–	–	–
303.16 K	–	–	–	–	2.985 ± 0.063	3.115 ± 0.066	3.384 ± 0.072	3.672 ± 0.078
303.17 K	2.617 ± 0.056	2.637 ± 0.057	–	–	–	–	–	–
313.14 K	–	2.151 ± 0.046	–	–	2.422 ± 0.051	2.522 ± 0.053	2.727 ± 0.058	–
313.15 K	2.129 ± 0.045	–	2.227 ± 0.047	2.326 ± 0.049	–	–	–	2.955 ± 0.063
323.14 K	–	–	–	–	–	–	–	2.432 ± 0.052
323.15 K	1.774 ± 0.038	1.789 ± 0.039	1.85 ± 0.04	1.928 ± 0.041	2.008 ± 0.043	2.089 ± 0.044	2.254 ± 0.048	–
333.14 K	–	–	–	–	–	–	–	2.046 ± 0.044
333.15 K	1.503 ± 0.032	1.514 ± 0.033	1.565 ± 0.034	1.629 ± 0.035	1.696 ± 0.036	1.764 ± 0.038	1.903 ± 0.041	–
343.15 K	1.293 ± 0.028	1.303 ± 0.028	1.346 ± 0.029	1.401 ± 0.03	1.457 ± 0.031	1.514 ± 0.032	1.63 ± 0.035	1.752 ± 0.037
353.15 K	1.128 ± 0.024	–	1.174 ± 0.025	1.221 ± 0.026	1.269 ± 0.027	1.317 ± 0.028	1.417 ± 0.03	1.52 ± 0.033
353.16 K	–	1.136 ± 0.025	–	–	–	–	–	–
363.13 K	–	–	–	–	1.115 ± 0.024	1.157 ± 0.025	–	–
363.15 K	0.9897 ± 0.022	0.9971 ± 0.022	1.03 ± 0.022	1.072 ± 0.023	–	–	1.244 ± 0.027	1.332 ± 0.029

CCCOC(=O)CCCCC(=O)OCCC [dipropyl hexanedioate]
viscosity [mPa·s]
Details	100 kPa	1000 kPa	5000 kPa	10000 kPa	15000 kPa	20000 kPa	30000 kPa	40000 kPa
283.15 K	6.153 ± 0.14	6.217 ± 0.14	6.536 ± 0.15	6.943 ± 0.16	7.36 ± 0.17	7.811 ± 0.18	8.759 ± 0.2	9.76 ± 0.22
293.14 K	–	4.65 ± 0.11	–	–	–	–	–	–
293.15 K	4.599 ± 0.11	–	4.87 ± 0.11	5.155 ± 0.12	5.456 ± 0.12	5.773 ± 0.13	6.429 ± 0.15	7.169 ± 0.16
303.15 K	3.567 ± 0.082	3.604 ± 0.084	3.766 ± 0.086	3.983 ± 0.091	4.205 ± 0.096	4.434 ± 0.1	4.938 ± 0.11	5.457 ± 0.12
313.15 K	2.854 ± 0.065	2.889 ± 0.067	3.014 ± 0.069	3.178 ± 0.073	3.347 ± 0.076	3.519 ± 0.08	3.899 ± 0.089	4.293 ± 0.098
323.14 K	–	–	–	2.592 ± 0.059	–	–	–	–
323.15 K	2.34 ± 0.054	2.364 ± 0.055	2.464 ± 0.056	–	2.725 ± 0.062	2.867 ± 0.066	3.157 ± 0.072	3.475 ± 0.079
333.15 K	1.954 ± 0.045	1.973 ± 0.046	2.058 ± 0.047	2.163 ± 0.05	2.275 ± 0.052	2.391 ± 0.055	2.624 ± 0.06	2.875 ± 0.066
343.15 K	1.658 ± 0.038	1.673 ± 0.039	1.744 ± 0.04	1.835 ± 0.042	1.928 ± 0.044	2.019 ± 0.046	2.216 ± 0.051	2.42 ± 0.056
353.15 K	1.426 ± 0.033	1.44 ± 0.034	1.5 ± 0.035	1.577 ± 0.036	1.654 ± 0.038	1.736 ± 0.04	1.9 ± 0.044	2.074 ± 0.048
363.15 K	1.242 ± 0.029	1.253 ± 0.029	1.306 ± 0.03	1.371 ± 0.032	1.439 ± 0.033	1.508 ± 0.035	1.649 ± 0.038	1.798 ± 0.041
